Test results from patent publication US20110306597A1, “Nicotinamide Derivatives” (priority 2008, published 2011).
pIC50: −log10 of the molar value.

Target: human recombinant H-PGDS (Homo sapiens, UniProt O60760)
Test: Fluorescence Intensity h-PGDS TBA Enzyme Assay
Assay type: biochemical
Details: 1:175,000 human recombinant H-PGDS, highest inhibitor concentration typically 1 μM
Method in brief: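 Readout is PGH2 depletion: after a 42 s reaction with 5.0 μM PGH2 and 2.5 mM glutathione (pH 8.0 Tris, 10 min inhibitor preincubation), Fe(II) converts leftover PGH2 to MDA, which forms a fluorescent TBA complex. IC50s come from 11-point, 3-fold duplicate curves, 4-parameter fit.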

human recombinant H-PGDS, sequence (O60760 whole entry): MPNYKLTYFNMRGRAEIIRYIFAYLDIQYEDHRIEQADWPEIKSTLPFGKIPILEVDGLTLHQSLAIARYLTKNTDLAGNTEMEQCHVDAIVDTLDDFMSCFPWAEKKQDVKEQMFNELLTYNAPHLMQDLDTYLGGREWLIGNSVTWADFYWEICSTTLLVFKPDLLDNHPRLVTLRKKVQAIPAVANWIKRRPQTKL

Compound | pIC50
COc1cccc(-c2ccc(C(=O)NCCN3CCN(Cc4ccccc4)CC3)cn2)c1 [Example 295, N-[2-(4-Benzylpiperazin-1-yl)ethyl]-6-(3-methoxyphenyl)nicotinamide] | 6.42
COc1cccc(-c2ccc(C(=O)NCCN3CCCC3=O)cn2)c1 [Example 300, 6-(3-methoxyphenyl)-N-[2-(2-oxopyrrolidin-1-yl)ethyl]nicotinamide] | 6.12
COc1ccc(C(N)CC(=O)NC(=O)c2ccc(-c3ccc(F)cc3)nc2)cc1OC (centres unmarked) [Example 466, N-[3-Amino-3-(3,4-dimethoxyphenyl)propanoyl]-6-(4-fluorophenyl)nicotinamide] | ≤ 6.00
COCCN1CCC(CNC(=O)c2ccc(-c3cccc(F)c3)nc2)CC1 [Example 19, 6-(3-Fluorophenyl)-N-{[1-(2-methoxyethyl)piperidin-4-yl]methyl}nicotinamide] | 6.93
COc1cccc(-c2ccc(C(=O)NCCC3CCN(C)CC3)cn2)c1 [Example 487, 6-(3-Methoxyphenyl)-N-[2-(1-methylpiperidin-4-yl)ethyl]nicotinamide] | ≤ 6.00
CN(C)CCNC(=O)c1ccc(-c2ccc(F)cc2)nc1 [Example 467, N-[2-(Dimethylamino)ethyl]-6-(4-fluorophenyl)nicotinamide] | ≤ 6.00
O=C(NCc1ccc(Br)cc1)c1ccc(-c2ccc(F)cc2)nc1 [Example 505, N-(4-Bromobenzyl)-6-(4-fluorophenyl)nicotinamide] | ≤ 6.00
CCOC(=O)CCCNC(=O)c1ccc(-c2ccc(F)cc2)nc1 [Example 330, Ethyl 4-({[6-(4-fluorophenyl)pyridin-3-yl]carbonyl}amino)butanoate] | 6.29
COC(=O)[C@@H](NC(=O)c1ccc(-c2cccc(F)c2)nc1)[C@@H](C)O [Example 147, Methyl N-{[6-(3-fluorophenyl)pyridin-3-yl]carbonyl}-L-threoninate] | 6.42
CCOC(=O)CC(NC(=O)c1ccc(-c2cccc(F)c2)nc1)c1ccccc1 (centres unmarked) [Example 406, Ethyl 3-({[6-(3-fluorophenyl)pyridin-3-yl]carbonyl}amino)-3-phenylpropanoate] | 7.00
O=C(NCc1ccc(C(F)(F)F)cc1)c1ccc(-c2cccc(F)c2)nc1 [Example 409, 6-(3-Fluorophenyl)-N-[4-(trifluoromethyl)benzyl] nicotinamide] | 6.63
O=C(NCCc1nnc(-c2ccc(F)cc2)o1)c1ccc(-c2cccc(F)c2)nc1 [Example 200, 6-(3-Fluorophenyl)-N-{2-[5-(4-fluorophenyl)-1,3,4-oxadiazol-2-yl]ethyl}nicotinamide] | 6.35
O=C(NCCC1CCCCO1)c1ccc(-c2ccc(F)cc2)nc1 (centres unmarked) [Example 270, 6-(4-Fluorophenyl)-N-[2-(tetrahydro-2H-pyran-2-yl)ethyl]nicotinamide] | 6.67
COc1cccc(-c2ccc(C(=O)NCc3ccc(C(F)(F)F)cc3)cn2)c1 [Example 286, 6-(3-Methoxyphenyl)-N-[4-(trifluoromethyl)benzyl] nicotinamide] | 6.27
COc1cccc(-c2ccc(C(=O)NC3CCN(Cc4ccc(C)cc4)C3=O)cn2)c1 (centres unmarked) [Example 274, 6-(3-Methoxyphenyl)-N-[1-(4-methylbenzyl)-2-oxopyrrolidin-3-yl]nicotinamide] | 6.97
COC(=O)CCNC(=O)c1ccc(-c2ccc(F)cc2)nc1 [Example 494, Methyl N-{[6-(4-fluorophenyl)pyridin-3-yl]carbonyl}-beta-alaninate] | 6.12
CCc1cn2nc(N3C[C@H](NC(=O)c4ccc(-c5cccc(F)c5)nc4)[C@@H](O)C3)ccc2n1 [Example 564, N-[(3S,4S)-1-(2-ethylimidazo[1,2-b]pyridazin-6-yl)-4-hydroxypyrrolidin-3-yl]-6-(3-fluorophenyl)nicotinamide] | 7.21

Stronger by pIC50, values ahead:

pIC50 | Compound
7.22 | Cc1nccn1CCNC(=O)c1ccc(-c2cccc(F)c2)nc1 [Example 119, 6-(3-Fluorophenyl)-N-[2-(2-methyl-1H-imidazol-1-yl)ethyl]nicotinamide]
7.29 | 6-(3-Fluorophenyl)-N-{[4-(4- methoxybenzoyl)-5- oxomorpholin-2- yl]methyl}nicotinamide [Example 72]
7.31 | O=C(NCc1cc(F)cc2c1OCOC2)c1ccc(-c2cccc(F)c2)nc1 [Example 184, N-[(6-Fluoro-4H-1,3-benzodioxin-8-yl)methyl]-6-(3-fluorophenyl)nicotinamide]
7.37 | CCC(C)NC(=O)c1ccc(-c2cccc(C)c2)nc1 (centres unmarked) [Example 450, N-sec-Butyl-6-(3-methylphenyl)nicotinamide]
7.41 | N-(3-Fluorobenzyl)-6-(3- methylphenyl)nicotinamide [Example 238]
7.50 | O=C(NCC1CN(Cc2ccccn2)C(=O)CO1)c1ccc(-c2cccc(F)c2)nc1 (centres unmarked) [Example 67, 6-(3-Fluorophenyl)-N-{[5-oxo-4-(pyridin-2-ylmethyl)morpholin-2-yl]methyl}nicotinamide]
7.51 | O=C(NCCN1CCCC(CO)C1)c1ccc(-c2cccc(F)c2)nc1 (centres unmarked) [Example 18, 6-(3-Fluorophenyl)-N-{2-[3-(hydroxymethyl)piperidin-1-yl]ethyl}nicotinamide]
7.56 | O=C(NCC1CCCCO1)c1ccc(-c2ccccc2)nc1 (centres unmarked) [Example 399, 6-Phenyl-N-(tetrahydro-2H-pyran-2-ylmethyl) nicotinamide]
7.60 | COCCN1CCC2(CC1)CC(NC(=O)c1ccc(-c3cccc(F)c3)nc1)CO2 (centres unmarked) [Example 142, 6-(3-Fluorophenyl)-N-[8-(2-methoxyethyl)-1-oxa-8-azaspiro[4.5]dec-3-yl]nicotinamide]
7.61 | CCCCNC(=O)c1ccc(-c2cccc(F)c2)nc1 [Example 415, N-Butyl-6-(3-fluorophenyl)nicotinamide]
7.70 | Cc1cccc(-c2ccc(C(=O)NCc3cc(F)cc4c3OCOC4)cn2)c1 [Example 312, N-[(6-Fluoro-4H-1,3-benzodioxin-8-yl)methyl]-6-(3-methylphenyl)nicotinamide]
7.74 | O=C(NCCN1CCCOC1=O)c1ccc(-c2cccc(F)c2)nc1 [Example 41, 6-(3-Fluorophenyl)-N-[2-(2-oxo-1,3-oxazinan-3-yl)ethyl]nicotinamide]
7.76 | Cc1ccc(CNC(=O)c2ccc(-c3cccc(F)c3)nc2)cc1 [Example 404, 6-(3-Fluorophenyl)-N-(4-methylbenzyl)nicotinamide]
7.83 | CCc1nccn1CCCNC(=O)c1ccc(-c2cccc(F)c2)nc1 [Example 86, N-[3-(2-Ethyl-1H-imidazol-1-yl)propyl]-6-(3-fluorophenyl)nicotinamide]
7.97 | Cc1cccc(-c2ccc(C(=O)NCCc3ccncc3)cn2)c1 [Example 240, 6-(3-Methylphenyl)-N-(2-pyridin-4-ylethyl)nicotinamide]
8.29 | O=C(NCCc1cccs1)c1ccc(-c2ccccc2)nc1 [Example 363, 6-Phenyl-N-[2-(2-thienyl)ethyl]nicotinamide]
8.52 | Cc1ccccc1CNC(=O)c1ccc(-c2cccc(F)c2)nc1 [Example 153, 6-(3-Fluorophenyl)-N-(2-methylbenzyl)nicotinamide]
8.65 | Cc1ccc(CN2CCC(NC(=O)c3ccc(-c4cccc(F)c4)nc3)C2=O)cc1 (centres unmarked) [Example 193, 6-(3-Fluorophenyl)-N-[1-(4-methylbenzyl)-2-oxopyrrolidin-3-yl]nicotinamide]
